Columns and labels:
Assay type in all cases: cell-based
[1] = test system: MCMV (murine cytomegalovirus); assay: Anti-MCMV cytopathogenicity test; settings: Murid betaherpesvirus 1, 120 h; MCMV on 3T3 mouse cells, M.O.I. 0.05–0.1, 5 days
Experimental: Anti-HCMV (anti-human cytomegalovirus) and anti-MCMV (anti-murine cytomegalovirus) cytopathogenicity tests:
(§1) The test compounds were employed as 50 millimolar (mM) solutions in dimethyl sulfoxide (DMSO). Ganciclovir, foscarnet and cidofovir served as reference compounds. After the addition of 2 μl in each case of the 50, 5, 0.5 and 0.05 mM DMSO stock solutions to 98 μl each of cell culture medium in row 2 A-H in duplicate, 1:2 dilutions using 50 μl each of medium up to row 11 of the 96-well plate were carried out. The wells in rows 1 and 12 each contained 50 μl of medium. 150 μl each of a suspension of 1×10^4 cells (human lung fibroblasts [HELF]) were then pipetted into the wells (row 1=cell control) or a mixture of HCMV-infected and non-infected HELF cells (M.O.I.=0.001–0.002), i.e. 1–2 infected cells to 1000 non-infected cells, was pipetted into rows 2–12. Row 12 (without substance) served as a virus control. The final test concentrations were 250–0.0005 μM. The plates were incubated at 37° C./5% CO2 for 6 days, i.e. until all cells were infected in the virus controls (100% cytopathogenic effect [CPE]). The wells were then fixed by addition of a mixture of formalin and Giemsa's stain and stained (30 minutes), washed with double-distilled water and dried at 50° C. in a drying oven. The plates were then evaluated visually using an overhead microscope (Plaque multiplier from Technomara). […]

[2] = Cytotoxicity on 3T3 cells (anti-MCMV test); settings: 3T3 mouse cells, 5 days incubation
[3] = Cytotoxicity on HELF cells (anti-HCMV cytopathogenicity test plates); settings: human, human lung fibroblasts (HELF), 6 days incubation
Experimental: as §1, with “2 A-H” left out, “(M.O.I.=0.001-0.002),” for “(M.O.I.=0.001–0.002),”, “1-2” for “1–2”, “2-12.” for “2–12.”, “250-0.0005” for “250–0.0005”

[4] = test system: HCMV (human cytomegalovirus); assay: Anti-HCMV cytopathogenicity test; settings: Human betaherpesvirus 5, 144 h; inhibition of CPE by 50%, HCMV-infected HELF cells, M.O.I. 0.001–0.002, 6 days
Experimental: as §1, with “Anti-HCMV (anti-human cytomegalovirus) and anti-MCMV (anti-murine cytomegalovirus) cytopathogenicity tests: The test” for “The test”, “in row […] in duplicate,” for “in row 2 A-H in duplicate,”, “HELF cells (M.O.I.=0.001-0.002), i.e. 1-2” for “HELF cells (M.O.I.=0.001–0.002), i.e. 1–2”, “(M.O.I.=0.001-0.002), i.e. 1-2 infected cells” for “(M.O.I.=0.001–0.002), i.e. 1–2 infected cells”, “into rows 2-12. Row 12” for “into rows 2–12. Row 12”, “concentrations were 250-0.0005 μM. The” for “concentrations were 250–0.0005 μM. The”

Row | EC50 [1] | EC50 [4] | SMILES | CC50 at 5 days [2] | CC50 at 6 days [3]
1 | 35 nM | 28 nM | CC1(C(=O)Nc2ccc(NS(=O)(=O)c3cccc(-c4noc([C@@H](N)CCCCN)n4)c3)cc2)CC1 [Example 1] | 18000 nM | > 250000 nM
2 | 74 nM | 74 nM | CC(C)[C@H](N)c1nc(-c2ccc(S(=O)(=O)Nc3cccc(NC(=O)C(C)(C)CF)c3)cc2)no1 [Example 3, N-(3-{[(4-{5-[(1S)-1-Amino-2-methylpropyl]-1,2,4-oxadiazol-3-yl}phenyl)sulphonyl]amino}phenyl)-3-fluoro-2,2-dimethylpropanamide] | 63000 nM | > 250000 nM

Source: patent US7115636B2, “Hetrocyclic aryl sulphonamides” (Bayer Healthcare AG, priority 2001, dated 2006)
